Assay results from patent US20080300199A1, “ANTIBACTERIAL 1,4,5-SUBSTITUTED AMINOGLYCOSIDE ANALOGS” (Achaogen Inc., priority 2007, published 2008).
≈ marks a conversion by molar mass, not a printed value.

Assays:
Assay type in all cases: cell-based
P. aeruginosa APAE1058 = test: MIC assay, aminoglycoside-resistant P. aeruginosa APAE1058; details: origin CF - USA; for MIC (μg/ml) APAE1058: phenotype High level efflux; for MIC: Pseudomonas aeruginosa, APAE1058, phenotype High level efflux, read-out: MIC (μg/ml) APAE1058
Description: (§1) The MIC assays were carried out in 150 μL volume in duplicate in 96-well clear flat-bottom plates. The bacterial suspension from an overnight culture growth in appropriate medium was added to a solution of test compound in 4% DMSO in water. Final bacterial inoculum was approximately 10^5-10^6 CFU/well. The percent growth of the bacteria in test wells relative to that observed for a well containing no compound was determined by measuring absorbance at 595 nm (A595) after 24 h. […] Both ampicillin and tetracycline are used as antibiotic-positive controls in each screening assay for E. coli, S. aureus and K. pneumoniae. Ciprofloxacin is used as an antibiotic-positive control in each screening assay for P. aeruginosa. Amikacin is used as an antibiotic-positive control in each screening assay for A. baumannii. Each of the bacterial cultures that are available from ATCC (www.atcc.org) is identified by its ATCC number.
(§2) MIC assays were carried out as set forth in Example 20 above against certain aminoglycoside-resistant strains of Pseudomonas Aeruginosa.

P. aeruginosa APAE040 = test: MIC assay, aminoglycoside-resistant P. aeruginosa APAE040; details: origin SPRI; for MIC (μg/ml) APAE040: phenotype AAC(3)-I; for MIC: Pseudomonas aeruginosa, APAE040, phenotype AAC(3)-I, read-out: MIC (μg/ml) APAE040
Description: as §1, §2

P. aeruginosa APAE1009 = test: MIC assay, aminoglycoside-resistant P. aeruginosa APAE1009; details: origin RJ - Greece; for MIC (μg/ml) APAE1009: phenotype AAC(6′)-I + Efflux; for MIC: Pseudomonas aeruginosa, APAE1009, phenotype AAC(6′)-I + Efflux, read-out: MIC (μg/ml) APAE1009
Description: as §1, §2

P. aeruginosa APAE042 = test: MIC assay, aminoglycoside-resistant P. aeruginosa APAE042; details: origin SPRI; for MIC (μg/ml) APAE042: phenotype AAC(6′)-II; for MIC: Pseudomonas aeruginosa, APAE042, phenotype AAC(6′)-II, read-out: MIC (μg/ml) APAE042
Description: as §1, §2

P. aeruginosa APAE1068 = test: MIC assay, aminoglycoside-resistant P. aeruginosa APAE1068; details: origin Focus - France; for MIC (μg/ml) APAE1068: phenotype AAC(6′)-I + Efflux; for MIC: Pseudomonas aeruginosa, APAE1068, phenotype AAC(6′)-I + Efflux, read-out: MIC (μg/ml) APAE1068
Description: as §1, §2

P. aeruginosa ATCC 27853 = test: MIC assay, P. aeruginosa ATCC 27853; details: absorbance at 595 nm after 24 h; for MIC: Pseudomonas aeruginosa, ATCC27853, read-out: MIC (μg/ml) P. aeruginosa ATCC 27853
Description: as §1, with “CFU/well.” for “CFU/well. The percent growth of the bacteria in test wells relative to that observed for a well containing no compound was determined by measuring absorbance at 595 nm (A595) after 24 h.”, “Ciprofloxacin is used as an antibiotic-positive control in each screening assay for P. aeruginosa.” left out

S. aureus ATCC 29213 = test: MIC assay, S. aureus ATCC 29213; details: absorbance at 595 nm after 24 h; for MIC: Staphylococcus aureus, ATCC29213, read-out: MIC (μg/ml) S. aureus ATCC 29213
Description: as §1

A. baumannii ATCC 19606 = test: MIC assay, A. baumannii ATCC 19606; details: absorbance at 595 nm after 24 h; for MIC: Acinetobacter baumannii, ATCC19606, read-out: MIC (μg/ml) A. baumannii ATCC 19606
Description: as §1

K. pneumoniae ATCC 10031 = test: MIC assay, K. pneumoniae ATCC 10031; details: absorbance at 595 nm after 24 h; for MIC: Klebsiella pneumoniae, ATCC10031, read-out: MIC (μg/ml) K. pneumoniae ATCC 10031
Description: as §1

E. coli ATCC 25922 = test: MIC assay, E. coli ATCC 25922; details: absorbance at 595 nm after 24 h; for MIC: Escherichia coli, ATCC25922, read-out: MIC (μg/ml) E. coli ATCC 25922
Description: as §1, with “CFU/well.” for “CFU/well. The percent growth of the bacteria in test wells relative to that observed for a well containing no compound was determined by measuring absorbance at 595 nm (A595) after 24 h.”, “Ciprofloxacin is used as an antibiotic-positive control in each screening assay for P. aeruginosa.” left out

[1] = system: aminoglycoside-resistant Pseudomonas aeruginosa; test: MIC assays against aminoglycoside-resistant strains of Pseudomonas aeruginosa, summary in words; details: particularly strains expressing efflux-based resistance alone or with AMEs; in comparison to compound 10 and comparative compounds A and B
Description: as §1, §2

Compound: NCC1C=CC(N)C(OC2C(N)CC(N)C(O)C2OC2OC(CO)C(OC3OC(CN)C(O)C(O)C3N)C2O)O1 (centres unmarked) [A, 3′,4′-Di-deoxy-3′,4′-Di-dehydro-neomycin-B, reference compound]
- MIC (μg/ml) APAE1058 (P. aeruginosa APAE1058): >8 µg/mL
- MIC (μg/ml) APAE040 (P. aeruginosa APAE040): 4 µg/mL (≈ 6.89 µM)
- MIC (μg/ml) APAE1009 (P. aeruginosa APAE1009): >8 µg/mL
- MIC (μg/ml) APAE042 (P. aeruginosa APAE042): 4 µg/mL (≈ 6.89 µM)
- MIC (μg/ml) APAE1068 (P. aeruginosa APAE1068): 8 µg/mL

Compound: NCC[C@H](O)C(=O)N[C@@H]1C[C@H](N)[C@@H](O[C@H]2O[C@H](CN)[C@@H](O)[C@H](O)[C@H]2O)[C@H](O)[C@H]1O[C@H]1O[C@H](CO)[C@@H](O)[C@H](N)[C@H]1O [Amikacin, reference compound]
- MIC (P. aeruginosa ATCC 27853): 1 to 8 µg/mL (≈ 1.71 to 13.7 µM)
- MIC (S. aureus ATCC 29213): 1 to 8 µg/mL (≈ 1.71 to 13.7 µM)
- MIC (A. baumannii ATCC 19606): > 8 µg/mL
- MIC (K. pneumoniae ATCC 10031): < 1 µg/mL
- MIC (E. coli ATCC 25922): 1 to 8 µg/mL (≈ 1.71 to 13.7 µM)

Compound: NCC1CCC(N)C(OC2C(N)CC(N)C(O)C2OC2OC(CO)C(OC3OC(CN)C(O)C(O)C3N)C2O)O1 (centres unmarked) [B, 3′,4′-Di-deoxy-neomycin-B, reference compound]
- MIC (μg/ml) APAE1058 (P. aeruginosa APAE1058): >8 µg/mL
- MIC (μg/ml) APAE040 (P. aeruginosa APAE040): 1 µg/mL (≈ 1.72 µM)
- MIC (μg/ml) APAE1009 (P. aeruginosa APAE1009): >8 µg/mL
- MIC (μg/ml) APAE042 (P. aeruginosa APAE042): 2 µg/mL (≈ 3.43 µM)
- MIC (μg/ml) APAE1068 (P. aeruginosa APAE1068): 4 µg/mL

Compound: NCC[C@H](O)C(=O)N[C@@H]1C[C@H](N)[C@@H](O[C@H]2O[C@H](CN)CC[C@H]2N)[C@H](O[C@@H]2O[C@H](CO)[C@@H](O[C@H]3O[C@@H](CN)[C@@H](O)[C@H](O)[C@H]3N)[C@H]2O)[C@H]1O [Compound 10, 3′,4′-Di-deoxy-N-1 haba neomycin]
- MIC (P. aeruginosa APAE1058): 32 µg/mL (≈ 46.8 µM)
- MIC (P. aeruginosa ATCC 27853): < 1 µg/mL
- MIC (P. aeruginosa APAE040): 2 µg/mL (≈ 2.93 µM)
- MIC (S. aureus ATCC 29213): < 1 µg/mL
- MIC (P. aeruginosa APAE1009): 4 µg/mL
- MIC (A. baumannii ATCC 19606): 1 to 8 µg/mL (≈ 1.46 to 11.7 µM)
- MIC (P. aeruginosa APAE042): 1 µg/mL (≈ 1.46 µM)
- MIC (K. pneumoniae ATCC 10031): < 1 µg/mL
- MIC (E. coli ATCC 25922): < 1 µg/mL
- MIC (P. aeruginosa APAE1068): 8 µg/mL

Compound: NCC[C@H](O)C(=O)N[C@@H]1C[C@H](N)[C@@H](O[C@H]2O[C@H](CN)C=C[C@H]2N)[C@H](O[C@@H]2O[C@H](CO)[C@@H](O[C@H]3O[C@@H](CN)[C@@H](O)[C@H](O)[C@H]3N)[C@H]2O)[C@H]1O [Compound 11]
- MIC (P. aeruginosa APAE1058): 16 µg/mL (≈ 23.5 µM)
- MIC (P. aeruginosa ATCC 27853): 1 to 8 µg/mL (≈ 1.47 to 11.7 µM)
- MIC (P. aeruginosa APAE040): 1 µg/mL (≈ 1.47 µM)
- MIC (S. aureus ATCC 29213): < 1 µg/mL
- MIC (P. aeruginosa APAE1009): 2 µg/mL
- MIC (A. baumannii ATCC 19606): 1 to 8 µg/mL (≈ 1.47 to 11.7 µM)
- MIC (P. aeruginosa APAE042): 0.5 µg/mL (≈ 0.733 µM)
- MIC (K. pneumoniae ATCC 10031): < 1 µg/mL
- MIC (E. coli ATCC 25922): 1 to 8 µg/mL (≈ 1.47 to 11.7 µM)
- MIC (P. aeruginosa APAE1068): 2 µg/mL
- activity on aminoglycoside-resistant Pseudomonas aeruginosa strains [1]: superior activity

Compound: NCC[C@H](O)C(=O)NC1CC(N)C(OC2OC(CN)CC(O)C2N)C(OC2OC(CO)C(OC3OC(CN)C(O)C(O)C3N)C2O)C1O (some centres unmarked) [Compound 18, 4′-Deoxy-N-1 haba neomycin]
- MIC (μg/ml) P. aeruginosa ATCC 27853 (P. aeruginosa ATCC 27853): A (MIC's of 1.0 μg/mL or less = A)
- MIC (μg/ml) S. aureus ATCC 29213 (S. aureus ATCC 29213): B (MIC's of greater than 1.0 μg/mL to 8.0 μg/mL = B)
- MIC (μg/ml) A. baumannii ATCC 19606 (A. baumannii ATCC 19606): B (MIC's of greater than 1.0 μg/mL to 8.0 μg/mL = B)
- MIC (μg/ml) K. pneumoniae ATCC 10031 (K. pneumoniae ATCC 10031): A (MIC's of 1.0 μg/mL or less = A)
- MIC (μg/ml) E. coli ATCC 25922 (E. coli ATCC 25922): B (MIC's of greater than 1.0 μg/mL to 8.0 μg/mL = B)
